The test system of data set [1] is colorectal adenocarcinoma (Caco-2) cell line. Nature of the data set: MTT cytotoxicity assay against Caco-2 cells. The format is cell-based. To be noted: Homo sapiens; Caco-2 cell line, MTT assay (Table 1). The method, then:
The colorectal adenocarcinoma Caco-2 cell line was generously provided by the Zydus Research Centre, Ahmedabad, Gujarat, India. These cells were maintained in DMEM (Hi-Media) containing 25 mM HEPES buffer, 1000 mg/L glucose, L-glutamine, sodium bicarbonate, and sodium pyruvate and supplemented with 20% heat-inactivated FBS (cell clone), 1% (v/v) minimal essential medium nonessential amino acids (Hi-Media), antibiotic, and antimycotic (penicillin, streptomycin, and amphotericin B; Hi-Media) in a humidified atmosphere of 5% CO2 at 37 °C. […] Caco-2 VB cells, which overexpress hPGP, were generated by growing Caco-2 cells in the presence of 1 μg/mL vinblastine. The drug was removed from the culture medium 2–3 days prior to using the Caco-2 VB cells in the biological assays.
Caco-2 cells were cultured in 96-well plates until they reached 70–80% confluency and then treated with the TRZ-DHPM derivatives (0.1–100 μM). Cytotoxicity was determined using an MTT (3-(4,5-dimethylthiazol-2-yl)-2,5-diphenyltetrazolium bromide) assay as described previously.[31]

The target of data set [2] is T1, human P-glycoprotein (hPgp) (Homo sapiens, UniProt P08183).
T1 construct: Caco-2 VB cells, which overexpress hPGP, were generated by growing Caco-2 cells in the presence of 1 μg/mL vinblastine; endogenous in cells; host or cells: Caco-2 VB (vinblastine-resistant human colorectal adenocarcinoma Caco-2 cells)
T1 sequence (P08183 whole entry): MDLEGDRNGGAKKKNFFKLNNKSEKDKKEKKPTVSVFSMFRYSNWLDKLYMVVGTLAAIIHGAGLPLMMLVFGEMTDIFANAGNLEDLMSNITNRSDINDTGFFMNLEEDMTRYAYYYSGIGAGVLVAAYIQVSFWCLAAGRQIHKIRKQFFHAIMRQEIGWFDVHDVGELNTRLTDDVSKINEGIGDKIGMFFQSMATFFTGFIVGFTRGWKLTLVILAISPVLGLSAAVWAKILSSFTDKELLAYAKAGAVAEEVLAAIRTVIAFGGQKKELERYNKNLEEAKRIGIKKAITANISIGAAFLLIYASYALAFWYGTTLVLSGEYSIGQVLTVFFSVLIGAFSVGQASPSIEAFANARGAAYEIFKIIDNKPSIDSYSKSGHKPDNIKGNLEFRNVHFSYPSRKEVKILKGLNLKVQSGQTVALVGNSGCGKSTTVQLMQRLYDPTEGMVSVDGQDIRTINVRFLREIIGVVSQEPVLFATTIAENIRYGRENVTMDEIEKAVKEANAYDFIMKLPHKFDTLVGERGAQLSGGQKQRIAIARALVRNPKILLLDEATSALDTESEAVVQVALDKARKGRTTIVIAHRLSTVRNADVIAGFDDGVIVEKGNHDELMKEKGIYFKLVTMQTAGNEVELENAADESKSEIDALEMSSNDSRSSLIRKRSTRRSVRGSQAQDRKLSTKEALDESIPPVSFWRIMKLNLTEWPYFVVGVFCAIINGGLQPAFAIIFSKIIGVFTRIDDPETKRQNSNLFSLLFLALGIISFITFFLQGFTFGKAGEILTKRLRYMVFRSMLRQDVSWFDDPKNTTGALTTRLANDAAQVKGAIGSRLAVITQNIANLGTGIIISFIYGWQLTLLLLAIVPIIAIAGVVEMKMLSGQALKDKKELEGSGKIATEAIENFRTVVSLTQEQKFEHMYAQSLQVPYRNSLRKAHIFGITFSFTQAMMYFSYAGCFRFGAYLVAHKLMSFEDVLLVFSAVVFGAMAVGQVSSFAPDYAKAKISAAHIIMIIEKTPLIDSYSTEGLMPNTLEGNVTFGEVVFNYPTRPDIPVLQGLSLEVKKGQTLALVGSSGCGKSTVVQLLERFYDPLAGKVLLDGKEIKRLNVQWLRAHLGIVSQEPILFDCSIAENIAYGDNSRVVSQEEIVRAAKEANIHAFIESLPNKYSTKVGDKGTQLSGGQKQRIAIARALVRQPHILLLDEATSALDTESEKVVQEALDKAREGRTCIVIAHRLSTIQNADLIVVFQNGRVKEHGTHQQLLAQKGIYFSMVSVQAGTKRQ
In words: hPgp-mediated calcein-AM efflux assay in Caco-2 VB cells. The class given is cell-based. To be noted: Caco-2 VB cells, calcein-AM; read-out: inhibition of calcein extrusion, EC50. The method, then:
(§1) In this assay, hydrolysis of intracellular calcein-AM to calcein by endogenous cellular esterases causes the cell to become highly fluorescent (see Figure S1 in Supporting Information).
The colorectal adenocarcinoma Caco-2 cell line was generously provided by the Zydus Research Centre, Ahmedabad, Gujarat, India. […] Caco-2 VB cells, which overexpress hPGP, were generated by growing Caco-2 cells in the presence of 1 μg/mL vinblastine. The drug was removed from the culture medium 2–3 days prior to using the Caco-2 VB cells in the biological assays.
Each well contained 100 μL of cells in culture medium, 50 μL of a solution containing the TRZ-DPHM derivative, and 50 μL of calcein-AM (total volume, 200 μL). The final concentration of putative hPGP inhibitor in each assay ranged from 0.01 to 30 μg/mL. […] Caco-2 cells were used as a negative control (Figure S1). […] PBS was used for all dilutions. All experiments were performed in triplicate.
The effectiveness of inhibitors on Pgp efflux activity, i.e., calcein retention was calculated by the following equation [drawing 1] where FT is the fluorescence of treated cells and FU is the fluorescence of untreated cells.

For data set [3], the target named is T2, hPgp (Homo sapiens, UniProt P08183).
T2 construct: Caco-2 VB cells, which overexpress hPGP, were generated by growing Caco-2 cells in the presence of 1 μg/mL vinblastine; endogenous in cells; host or cells: Caco-2 VB (vinblastine-resistant human colorectal adenocarcinoma Caco-2 cells)
T2 sequence (P08183 whole entry): as above
Nature of the data set: Fluorescence microscopy imaging of intracellular calcein in Caco-2 VB cells. The format is cell-based. The note with it: Caco-2-VB cells, 1 μM calcein-AM, 30 min, concentration = EC50.
Excerpt: as §1
Full details are provided in the Supporting Information.

As usually defined, the IC50 is the point on the concentration scale where inhibition reaches its midpoint. One may read the EC50 as the midpoint of the concentration-response curve. A word on the melting point: it is the temperature of the solid-liquid transition. Regarding `CC(=O)C1=C(C)NC(=O)NC1c1cc(Br)cc(Br)c1OCc1cn(-c2ccccc2[N+](=O)[O-])nn1` (stereo not shown) [6cb′, 5-Acetyl-4-(3,5-dibromo-2-((1-(2-nitrophenyl)-1H-1,2,3-triazol-4-yl)methoxy)phenyl)-6-methyl-3,4-dihydro-pyrimidin-2(1H)-one], the melting point fell in the range of 167 to 169 °C. In data set [1], this compound had an IC50 of 1.22 ± 0.08 µM. Also, the concentration for a half-maximal effect (EC50) in data set [2] was 3.4 ± 0.3 µM. For the same compound, in data set [3], the “intracellular calcein retention by fluorescence microscopy” value is on record as “confirmed intracellular calcein retention”.

Values taken from PMC9118204, “Novel Dihydropyrimidinone Derivatives as Potential P-Glycoprotein Modulators” (ACS Omega, 2022).
